One compound from patent US9994533B2, “Method of preparing ATG's analogue, and the application of ATG and it's analogue” (Longhua Hospital Shanghai University of Traditional Chinese …, priority 2016, dated 2018) can be followed below.

The target of experiment [1] is T1, Heterogeneous nuclear ribonucleoprotein H2 (Homo sapiens, UniProt P55795).
T1 construct: endogenous in cells; host or cells: 293T
T1 sequence (P55795 1-449): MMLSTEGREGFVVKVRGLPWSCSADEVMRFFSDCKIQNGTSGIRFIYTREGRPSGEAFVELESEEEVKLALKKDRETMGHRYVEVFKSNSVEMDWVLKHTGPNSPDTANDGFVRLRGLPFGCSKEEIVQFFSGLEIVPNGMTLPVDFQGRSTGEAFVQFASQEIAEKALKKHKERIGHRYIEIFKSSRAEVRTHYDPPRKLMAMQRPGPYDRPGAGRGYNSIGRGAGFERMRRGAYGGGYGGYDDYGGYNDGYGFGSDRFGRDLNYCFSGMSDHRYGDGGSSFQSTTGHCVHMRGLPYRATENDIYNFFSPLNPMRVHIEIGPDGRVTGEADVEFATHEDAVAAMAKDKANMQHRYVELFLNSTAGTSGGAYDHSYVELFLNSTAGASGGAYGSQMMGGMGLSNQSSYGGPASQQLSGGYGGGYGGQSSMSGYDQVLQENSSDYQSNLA
The experiment is described as follows: DARTS mass spectrometry of 293T lysate after ATG. It counts as binding. The conditions noted are these: ATG 300 μM, pronase 1:1000, HNRH2_HUMAN. The protocol:
(§1) 293T cells were digested with M-PER mammalian protein extraction buffer (78501 ThermoFisher) and phosphatase inhibitor (50 mM NaF, 10 mM β-glycerophosphate, 5 mM sodium pyrophosphate, 2 mM Na3VO4); and the protein concentration is determined by Bradford method (500-0006 Bio-rad). ATG was either added or not in the cell lysate. If added, the concentration of ATG was 300 μM. The cells were incubated at room temperature for 1 h. The cells were then lysed by incubating for 20 minutes at room temperature with different concentrations of pronase at 1:1000 (10165921001, Roche). The two groups of lysates are subjected to mass spectrometry and then compared.

Experiment [2] has as its target T2, Protein transport protein Sec61 subunit alpha isoform 1 (Homo sapiens, UniProt P61619).
T2 construct: endogenous in cells; host or cells: 293T
Put plainly: DARTS mass spectrometry of 293T lysate after ATG. The conditions noted are these: ATG 300 μM, pronase 1:1000, S61A1_HUMAN. It counts as binding. As to the method:
as §1

Experiment [3] deals with T3, Keratin, type I cytoskeletal 17 (Homo sapiens, UniProt Q04695).
T3 construct: endogenous in cells; host or cells: 293T
T3 sequence (Q04695 1-432): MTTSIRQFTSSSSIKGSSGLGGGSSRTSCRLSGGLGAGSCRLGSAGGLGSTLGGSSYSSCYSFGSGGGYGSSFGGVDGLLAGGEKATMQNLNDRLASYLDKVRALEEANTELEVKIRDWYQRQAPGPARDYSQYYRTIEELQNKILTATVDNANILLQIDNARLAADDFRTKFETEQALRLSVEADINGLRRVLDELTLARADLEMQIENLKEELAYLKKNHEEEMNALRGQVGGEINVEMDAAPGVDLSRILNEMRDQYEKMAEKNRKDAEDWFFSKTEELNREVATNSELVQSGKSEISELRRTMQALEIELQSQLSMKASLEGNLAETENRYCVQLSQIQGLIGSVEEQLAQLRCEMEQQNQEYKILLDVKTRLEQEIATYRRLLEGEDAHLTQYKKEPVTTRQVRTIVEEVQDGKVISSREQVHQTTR
The experiment is described as follows: DARTS mass spectrometry of 293T lysate after ATG. The class given is binding. The conditions noted are these: ATG 300 μM, pronase 1:1000, K1C17_HUMAN. The protocol:
as §1

For experiment [4], the target named is T4, Keratin, type II cytoskeletal 5 (Homo sapiens, UniProt P13647).
T4 construct: endogenous in cells; host or cells: 293T
T4 sequence (P13647 1-590): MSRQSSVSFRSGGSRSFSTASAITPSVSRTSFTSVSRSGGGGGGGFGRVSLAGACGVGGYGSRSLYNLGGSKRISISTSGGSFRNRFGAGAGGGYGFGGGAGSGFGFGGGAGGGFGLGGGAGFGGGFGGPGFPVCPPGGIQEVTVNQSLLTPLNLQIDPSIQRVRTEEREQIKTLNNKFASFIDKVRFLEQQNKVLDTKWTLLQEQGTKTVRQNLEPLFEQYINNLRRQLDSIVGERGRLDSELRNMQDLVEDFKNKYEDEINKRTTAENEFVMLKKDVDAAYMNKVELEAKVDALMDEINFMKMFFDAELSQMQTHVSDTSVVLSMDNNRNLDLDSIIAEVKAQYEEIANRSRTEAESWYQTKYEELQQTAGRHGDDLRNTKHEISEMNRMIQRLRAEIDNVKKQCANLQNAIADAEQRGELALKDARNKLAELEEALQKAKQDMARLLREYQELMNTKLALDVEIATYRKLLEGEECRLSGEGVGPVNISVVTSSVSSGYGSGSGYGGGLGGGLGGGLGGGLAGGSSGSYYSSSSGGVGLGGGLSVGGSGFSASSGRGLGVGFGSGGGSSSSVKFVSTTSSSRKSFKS
The experiment is described as follows: DARTS mass spectrometry of 293T lysate after ATG. The note with it: ATG 300 μM, pronase 1:1000, K2C5_HUMAN. It counts as binding. The protocol:
as §1

The target of experiment [5] is T5, Keratin, type II cytoskeletal 6A (Homo sapiens, UniProt P02538).
T5 construct: endogenous in cells; host or cells: 293T
T5 sequence (P02538 2-564 limits assumed): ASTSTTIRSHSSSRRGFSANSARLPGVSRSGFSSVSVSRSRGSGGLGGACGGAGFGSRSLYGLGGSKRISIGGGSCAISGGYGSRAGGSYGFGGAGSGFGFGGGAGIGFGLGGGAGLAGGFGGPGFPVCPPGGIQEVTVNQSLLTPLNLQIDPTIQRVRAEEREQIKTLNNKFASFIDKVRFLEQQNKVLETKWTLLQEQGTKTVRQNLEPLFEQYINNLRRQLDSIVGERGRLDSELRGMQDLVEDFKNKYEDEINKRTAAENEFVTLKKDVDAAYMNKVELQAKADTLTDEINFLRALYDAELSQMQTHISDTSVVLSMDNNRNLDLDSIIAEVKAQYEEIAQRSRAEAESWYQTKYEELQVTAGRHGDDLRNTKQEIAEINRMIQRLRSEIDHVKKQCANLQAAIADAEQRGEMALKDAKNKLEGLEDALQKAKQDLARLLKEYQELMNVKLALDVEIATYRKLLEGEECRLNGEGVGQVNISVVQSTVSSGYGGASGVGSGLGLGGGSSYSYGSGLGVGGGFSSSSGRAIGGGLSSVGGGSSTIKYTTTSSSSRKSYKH
Put plainly: DARTS mass spectrometry of 293T lysate after ATG. The class given is binding. The note with it: ATG 300 μM, pronase 1:1000, K2C6A_HUMAN. The protocol: as §1

The subject of a further experiment is PP2A. Put plainly: PP2A activity in immortal podocytes (PP2A activity kit). It counts as cell-based. The note with it: 1 hour. As to the method: Immortal podocytes were stimulated with ATG at concentrations of 0, 1.0 μm, 3.3 μm, and 10 μm, and the stimulation time was 1 hour. The activity of PP2A was detected by PP2A activity kit (R & D systems, DYC3309-2).

T2 sequence (P61619 whole entry, canonical isoform): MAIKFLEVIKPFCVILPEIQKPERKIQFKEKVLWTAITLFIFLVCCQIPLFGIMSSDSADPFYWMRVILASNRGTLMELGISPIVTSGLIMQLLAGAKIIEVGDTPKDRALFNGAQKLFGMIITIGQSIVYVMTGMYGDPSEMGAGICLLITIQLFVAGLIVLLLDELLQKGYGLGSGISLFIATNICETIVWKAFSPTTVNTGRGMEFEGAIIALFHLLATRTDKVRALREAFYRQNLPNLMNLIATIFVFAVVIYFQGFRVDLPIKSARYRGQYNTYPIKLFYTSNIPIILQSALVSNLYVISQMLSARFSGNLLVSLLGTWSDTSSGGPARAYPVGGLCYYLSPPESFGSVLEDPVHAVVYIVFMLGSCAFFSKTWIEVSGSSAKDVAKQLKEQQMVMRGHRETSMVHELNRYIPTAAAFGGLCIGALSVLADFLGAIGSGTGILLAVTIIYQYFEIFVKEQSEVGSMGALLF

Take `COc1cc(C[C@H]2C(=O)OC[C@@H]2Cc2ccc(OC)c(OC)c2)ccc1O` [ATG, Arctigenin]: the “Ratio (ATG/DMSO)” value in experiment [1] was 6.8; in experiment [2], 4.7; in experiment [3], 4.7; in experiment [4], 4.7; in experiment [5] it was 5.2. Also, the “Spectral Count (ATG)” value in experiment [1] came out at 12; in experiment [2] it was 7; in experiment [3], 7; in experiment [4], 7; in experiment [5], 8. For the same compound, the “activity of PP2A, dependence on concentration” value in the experiment with PP2A (ATG 0 to 10 μm) is “increased with the increase of ATG concentration”. Moreover, the “PP2A activity values, mean” value was found to be 0.0268 with PP2A (ATG 1.0 μm), 0.0279 with PP2A (ATG 3.3 μm) and 0.0484 in the experiment with PP2A (ATG 10 μm).
